Experimental data published in US20220096484A1, “METHODS AND COMPOSITIONS FOR TREATING CANCER BY TARGETING FATP2 AND MYELOID DERIVED SUPPRESSOR CELLS” (The Wistar Institute of Anatomy and Biology, priority 2019, published 2022).

Experiments:
EL-4 tumor cells = experiment: MTT assay after three-day incubation of tumor cells with lipofermata; format: cell-based; details: EL-4 cells, range of concentrations corresponding to the dose used in vivo (0.2 mg/ml)
Protocol: (§1) FIGS. 13A-FIG. 13E show the effect of lipofermata treatment on tumor-bearing mice. FIG. 13A, MTT assay after three-day incubation of tumor cells with indicated concentration of lipofermata. FIG. 13B, Percentage and absolute number of tumor-associated antigen (E7-derived peptide)-specific CD8^+ T cells in draining lymph nodes of mice bearing TC-1 tumor and treated with lipofermata (n=3). FIG. 13C, Growth of TC-1 tumors in mice treated with CTLA4 antibody and lipofermata (n=5). FIG. 13D, CD8^+ T cell infiltration of TC-1 tumors in mice treated with CTLA4 antibody and lipofermata. FIG. 13E, Growth of TC-1 tumors in mice treated with PD1 antibody and lipofermata (n=5). Data are mean±s.d. *P<0.05, **P<0.01, ***P<0.001, ****P<0.0001, two-sided Student's t-test (FIG. 13B) or two-way ANOVA test with correction for repeated measurements (FIG. 13E).
(§2) Tumor cell lines: EL4 (lymphoma), LLC (Lewis Lung Carcinoma), CT26 (colon carcinoma), TC-1 (HPV16 E6/E7 expressing tumor cell line) were obtained from ATCC and F244 (sarcoma) was kindly provided by Dr. R. Schreiber (Washington University, St. Lois, Mo.). All cells were maintained in DMEM medium supplemented with 10% fetal bovine serum (FBS, Sigma-Aldrich, St. Louis, Mo.) at 37° C., 5% CO2. Tumor cells were injected subcutaneously (s.c.) at 5×10^5 cells per mouse. […]

LLC tumor cells = experiment: as above; format: cell-based; details: range of concentrations corresponding to the dose used in vivo (0.2 mg/ml)
Protocol: as §1, §2

[1] = test system: LLC tumors in NOD-SCID mice; experiment: Growth of LLC tumors in NOD-SCID mice treated with lipofermata; format: in vivo, mouse; details: lipofermata 2 mg/kg twice per day s.c.
Protocol: (§3) FIG. 4A-FIG. 4E, Treatments with lipofermata (2 mg kg^−1 twice per day subcutaneously) started 8-10 days after tumor injection. Anti-CTLA4 antibody (200 μg per mouse, intraperitoneally) was administrated at days 7 and 11 after tumor injection, and anti-CSF1R antibody ([…] per mouse, intraperitoneally) was administered every other day, starting the day after tumor injection. FIG. 4A, Growth of indicated tumors in C57BL/6 mice treated with lipofermata. Representative of two independent experiments (n=4-5 mice per group). FIG. 4B, Growth of LLC tumors in NOD-SCID mice treated with lipofermata (n=5). FIG. 4C, Growth of LLC tumors in mice depleted of CD8 T cells and treated with lipofermata (n=5). FIG. 4D, Growth of LLC tumors in mice treated with anti-CTLA4 antibody and lipofermata (n=5). FIG. 4E, Growth of LLC tumors in mice treated with CSF1R inhibitor and lipofermata (n=5). Data are mean±se.m. *P<0.05, **P<0.01, ***P<0.001, ****P<0.0001 (differences from untreated […] and between treated groups), two-way ANOVA with corrections for multiple comparison. NS, not significant.
5×10^5 tumor cells were injected s.c. into mice, which formed tumors with a 1.5-cm diameter within 2-3 weeks of injection. Lipofermata was administrated s.c. at dose of 2 mg/kg twice per day. As a control, mice were treated with vehicle alone (DMSO+30% v/v Kolliphor). […]

[2] = test system: tumor-associated antigen (E7-derived peptide)-specific CD8+ T cells; experiment: Antigen specific CD8 T cells in draining lymph nodes of TC-1 tumor-bearing mice (MHC tetramer flow cytometry); format: in vivo, mouse; details: TC-1 model; lipofermata treatment
Protocol: as §1, with “Data are mean±s.d. *P<0.05, **P<0.01, ***P<0.001, ****P<0.0001, two-sided Student's t-test (FIG. 13B) or two-way ANOVA test with correction for repeated measurements (FIG. 13E).” left out
Lymph nodes (LNs) were obtained from TB mice and digested for 30 min at 37° C. with collagenase A (0.5 mg/ml; Sigma Aldrich), Dnase I (0.2 mg/ml, Roche), diluted in HBSS with Ca^2+/Mg^2+ and 20 mM EDTA (Invitrogen) was added 5 min at room temperature to stop the reaction. CD8^+ T cells were isolated from LNs of TB mice using EasySep Mouse CD8+ T Cell Enrichment Kit (STEMCELL) and stimulated with anti CD3 and anti CD28 antibodies (BD Biosciences) for 24 h and IFNγ was analyzed by ELISpot (Mabtech), accordingly to manufacturer's instructions. T cell proliferation was evaluated by flow cytometry using CSFE (BioLegend). […]

LLC tumors = experiment: Growth of LLC tumors in mice (lipofermata alone, CD8 T cell depletion, combination with antibodies); format: in vivo, mouse
Protocol: as §3
5×10^5 tumor cells were injected s.c. into mice, which formed tumors with a 1.5-cm diameter within 2-3 weeks of injection. Lipofermata was administrated s.c. at dose of 2 mg/kg twice per day. As a control, mice were treated with vehicle alone (DMSO+30% v/v Kolliphor). Treatments with lipofermata started 8-10 days after tumors injections. CSF1R antibody (BioXcell, 300 μg/mouse) was administered every other day starting next day after tumor injection and continued until the mice were sacrificed. PD-1 antibody (clone RMP1-14, BioXcell, 200 μg/mouse) was administered twice a week started 10-12 days after tumor injection. CTLA4-IgG2a (BioXcell, 200 μg/mouse) was administered at day 7 and day 11.
(§4) Statistical analysis was performed using unpaired two-tailed Student's t-test with significance determined at 0.05. […] Tumor growth was evaluated using two-way Anova test with Bonferroni correction for multiple comparisons.

tumors in C57BL/6 mice = experiment: Growth of tumors in C57BL/6 mice treated with lipofermata (four tumor models); format: in vivo, mouse; details: four tested tumor models, lipofermata 2 mg/kg twice per day s.c., started 8-10 days after tumor injection
Protocol: as §3, with “significant. […]” for “significant.”
as §4

`O=C1Nc2ccc(Br)cc2C12NN=C(c1ccccc1)S2` (stereo not drawn) [lipofermata, 5′-bromo-5-phenyl-spiro[3H-1,3,4-thiadiazole-2,3′-indoline]-2′-one] was tested, and the “proliferation of tumor cells in vitro (MTT)” value (EL-4 tumor cells) was “did not affect proliferation”, the “proliferation of tumor cells in vitro (MTT)” value (LLC tumor cells) was “did not affect proliferation” and the “tumor growth delay effect in immune deficient mice” value [1] was “this effect was absent”. For the same compound, the “absolute numbers of antigen specific T cells in draining lymph nodes” value [2] was “increased”, the “percentage of antigen specific T cells in draining lymph nodes” value [2] was “increased” and the “antitumor effect (LLC tumor growth)” value (LLC tumors; LLC bearing mice, lipofermata 2 mg/kg twice per day s.c., anti-CTLA4 200 μg/mouse days 7 and 11, CSF1R antibody 300 μg/mouse every other day) was “had an antitumor effect”. For the same compound, the “blocking of tumor progression” value (LLC tumors; LLC bearing mice, single agents) was “neither blocked tumor progression”, the “tumor growth effect after depletion of CD8+ T cells” value (LLC tumors; LLC tumors, immune competent mice depleted of CD8 T cells, lipofermata 2 mg/kg twice per day s.c.) was “abrogated the effect of lipofermata” and the tumor growth (tumors in C57BL/6 mice) was “significant delay of tumor growth”.
